Test results published in ChEMBL document CHEMBL4190307, “Design, synthesis and biological evaluation of novel coumarin-N-benzyl pyridinium hybrids as multi-target agents for the treatment of Alzheimer's disease” (Eur J Med Chem, 2017).
The source made the active and inactive calls. The rule behind the calls is not given here.

Legend:
[1] = biological target: Amyloid-beta precursor protein (Homo sapiens) (UniProt P05067); assay: Inhibition of self-induced amyloid beta (1 to 42) (unknown origin) aggregation at 20 uM after 46 to 48 hrs by thioflavin T-based fluorescence assay relative to control
Chain of Amyloid-beta precursor protein (Homo sapiens) (P05067 whole entry): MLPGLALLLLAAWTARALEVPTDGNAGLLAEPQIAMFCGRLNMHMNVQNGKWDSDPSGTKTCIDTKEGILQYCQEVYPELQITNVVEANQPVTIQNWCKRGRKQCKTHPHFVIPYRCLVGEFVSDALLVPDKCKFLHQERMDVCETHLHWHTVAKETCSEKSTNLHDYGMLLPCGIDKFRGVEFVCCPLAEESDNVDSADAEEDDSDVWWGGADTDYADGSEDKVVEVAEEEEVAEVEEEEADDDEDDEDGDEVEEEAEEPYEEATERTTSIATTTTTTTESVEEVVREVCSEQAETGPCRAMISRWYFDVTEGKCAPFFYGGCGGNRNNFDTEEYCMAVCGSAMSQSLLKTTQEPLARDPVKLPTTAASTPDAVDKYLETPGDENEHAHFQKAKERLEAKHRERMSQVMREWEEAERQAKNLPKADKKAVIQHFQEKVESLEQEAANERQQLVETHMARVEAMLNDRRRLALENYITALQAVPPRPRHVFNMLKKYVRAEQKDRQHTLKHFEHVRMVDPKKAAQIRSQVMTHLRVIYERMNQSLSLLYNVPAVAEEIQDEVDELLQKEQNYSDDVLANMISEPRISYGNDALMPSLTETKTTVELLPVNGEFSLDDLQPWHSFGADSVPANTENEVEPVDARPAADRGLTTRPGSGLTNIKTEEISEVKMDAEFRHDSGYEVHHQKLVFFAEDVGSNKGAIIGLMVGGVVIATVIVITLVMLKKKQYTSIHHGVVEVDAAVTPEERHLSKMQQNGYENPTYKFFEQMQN

[2] = biological target: T1, Amine oxidase [flavin-containing] A (Homo sapiens, UniProt P21397); assay: Inhibition of recombinant human MAOA at 10 uM using p-tyramine as substrate after 15 mins by resorufin dye-based fluorometric method relative to control; settings: 0.25 h
T1 sequence (P21397 whole entry): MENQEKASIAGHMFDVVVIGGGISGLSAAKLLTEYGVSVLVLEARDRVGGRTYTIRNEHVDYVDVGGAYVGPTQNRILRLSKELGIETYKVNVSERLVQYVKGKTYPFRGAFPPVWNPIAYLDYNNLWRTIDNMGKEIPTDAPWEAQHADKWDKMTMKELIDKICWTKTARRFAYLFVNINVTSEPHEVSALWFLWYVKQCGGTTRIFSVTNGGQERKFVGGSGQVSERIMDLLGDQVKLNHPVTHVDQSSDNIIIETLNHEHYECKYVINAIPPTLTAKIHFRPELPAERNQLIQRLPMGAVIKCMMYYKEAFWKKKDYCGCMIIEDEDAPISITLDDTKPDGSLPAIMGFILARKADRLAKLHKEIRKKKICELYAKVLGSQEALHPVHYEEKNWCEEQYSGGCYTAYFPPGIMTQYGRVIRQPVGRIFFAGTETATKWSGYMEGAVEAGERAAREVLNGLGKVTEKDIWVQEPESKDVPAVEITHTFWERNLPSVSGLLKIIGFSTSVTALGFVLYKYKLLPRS

[3] = organism: Homo sapiens; assay: Selectivity index, ratio of IC50 for recombinant human MAOA to IC50 for recombinant human MAOB
[4] = Selectivity index, ratio of IC50 for equine serum BuChE to IC50 for electric eel AChE
[5] = biological target: Acetylcholinesterase (Electrophorus electricus, UniProt O42275); assay: Inhibition of electric eel AChE using acetylthiocholine iodide as substrate preincubated for 6 mins followed by substrate addition measured up to 180 secs by Ellman's method
Chain of Acetylcholinesterase (Electrophorus electricus, UniProt O42275) (O42275 whole entry): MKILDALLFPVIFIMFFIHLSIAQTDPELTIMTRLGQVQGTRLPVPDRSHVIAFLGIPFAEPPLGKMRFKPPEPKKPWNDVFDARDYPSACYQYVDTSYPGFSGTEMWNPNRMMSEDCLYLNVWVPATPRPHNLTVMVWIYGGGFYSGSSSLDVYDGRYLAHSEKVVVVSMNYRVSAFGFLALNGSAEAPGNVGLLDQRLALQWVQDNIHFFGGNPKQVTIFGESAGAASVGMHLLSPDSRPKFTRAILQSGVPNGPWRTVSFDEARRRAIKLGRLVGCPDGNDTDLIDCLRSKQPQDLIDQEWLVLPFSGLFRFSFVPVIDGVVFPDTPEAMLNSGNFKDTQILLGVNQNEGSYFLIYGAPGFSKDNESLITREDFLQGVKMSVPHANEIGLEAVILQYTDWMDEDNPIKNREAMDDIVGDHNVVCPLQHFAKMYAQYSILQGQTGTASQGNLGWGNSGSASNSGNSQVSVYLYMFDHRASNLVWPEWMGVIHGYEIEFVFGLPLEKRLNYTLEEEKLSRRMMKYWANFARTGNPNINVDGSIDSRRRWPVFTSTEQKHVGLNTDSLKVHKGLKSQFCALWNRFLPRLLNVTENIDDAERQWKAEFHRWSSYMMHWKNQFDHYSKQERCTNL

[6] = organism: Homo sapiens; assay: Selectivity index, ratio of IC50 for human serum BuChE to IC50 for human AChE
[7] = biological target: T2, Amine oxidase [flavin-containing] B (Homo sapiens, UniProt P27338)
T2 sequence (P27338 whole entry): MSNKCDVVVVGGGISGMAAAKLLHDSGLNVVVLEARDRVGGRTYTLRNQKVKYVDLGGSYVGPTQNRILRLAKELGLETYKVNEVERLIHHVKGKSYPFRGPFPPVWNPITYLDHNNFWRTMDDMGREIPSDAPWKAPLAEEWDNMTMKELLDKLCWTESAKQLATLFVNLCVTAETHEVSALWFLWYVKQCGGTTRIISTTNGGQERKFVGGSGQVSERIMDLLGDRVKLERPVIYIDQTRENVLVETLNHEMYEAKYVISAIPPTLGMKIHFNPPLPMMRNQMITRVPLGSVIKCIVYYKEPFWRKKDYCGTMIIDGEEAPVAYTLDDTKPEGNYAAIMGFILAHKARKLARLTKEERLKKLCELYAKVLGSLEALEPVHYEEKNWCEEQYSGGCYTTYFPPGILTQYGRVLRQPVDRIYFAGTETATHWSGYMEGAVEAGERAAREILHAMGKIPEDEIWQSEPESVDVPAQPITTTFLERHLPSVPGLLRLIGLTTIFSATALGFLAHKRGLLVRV
Description: Inhibition of recombinant human MAOB using p-tyramine as substrate after 15 mins by Amplex Red dye-based fluorometric method

[8] = tested on: PC-12; assay: Cytotoxicity against rat PC12 cells assessed as reduction in cell viability at 100 uM after 24 hrs by MTT assay relative to control; type: cell-based; settings: pc-12, 24 h
[9] = biological target: Cholinesterase (Homo sapiens, UniProt P06276)
Chain of Cholinesterase (Homo sapiens, UniProt P06276) (P06276 whole entry): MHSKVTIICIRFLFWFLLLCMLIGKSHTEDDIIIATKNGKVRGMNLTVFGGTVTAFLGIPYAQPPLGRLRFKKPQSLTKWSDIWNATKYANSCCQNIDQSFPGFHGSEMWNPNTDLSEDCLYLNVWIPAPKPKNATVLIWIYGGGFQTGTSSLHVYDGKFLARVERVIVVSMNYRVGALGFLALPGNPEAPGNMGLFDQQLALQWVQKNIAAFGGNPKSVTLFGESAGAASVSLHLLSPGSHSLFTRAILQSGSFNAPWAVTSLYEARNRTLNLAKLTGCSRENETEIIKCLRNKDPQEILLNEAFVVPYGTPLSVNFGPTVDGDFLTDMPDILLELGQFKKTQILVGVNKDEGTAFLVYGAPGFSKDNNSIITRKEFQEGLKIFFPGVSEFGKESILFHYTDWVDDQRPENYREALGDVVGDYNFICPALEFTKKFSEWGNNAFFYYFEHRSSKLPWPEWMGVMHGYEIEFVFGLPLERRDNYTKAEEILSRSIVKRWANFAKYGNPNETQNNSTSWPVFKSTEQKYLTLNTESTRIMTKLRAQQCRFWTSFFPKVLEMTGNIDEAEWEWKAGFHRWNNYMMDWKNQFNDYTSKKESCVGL
Description: Inhibition of human serum BuChE using S-butyrylthiocholine iodide as substrate preincubated for 6 mins followed by substrate addition measured up to 180 secs by Ellman's method

[10] = biological target: Cholinesterase (Equus caballus, UniProt P81908); assay: Inhibition of equine serum BuChE using S-butyrylthiocholine iodide as substrate preincubated for 6 mins followed by substrate addition measured up to 180 secs by Ellman's method
Chain of Cholinesterase (Equus caballus, UniProt P81908) (P81908 whole entry): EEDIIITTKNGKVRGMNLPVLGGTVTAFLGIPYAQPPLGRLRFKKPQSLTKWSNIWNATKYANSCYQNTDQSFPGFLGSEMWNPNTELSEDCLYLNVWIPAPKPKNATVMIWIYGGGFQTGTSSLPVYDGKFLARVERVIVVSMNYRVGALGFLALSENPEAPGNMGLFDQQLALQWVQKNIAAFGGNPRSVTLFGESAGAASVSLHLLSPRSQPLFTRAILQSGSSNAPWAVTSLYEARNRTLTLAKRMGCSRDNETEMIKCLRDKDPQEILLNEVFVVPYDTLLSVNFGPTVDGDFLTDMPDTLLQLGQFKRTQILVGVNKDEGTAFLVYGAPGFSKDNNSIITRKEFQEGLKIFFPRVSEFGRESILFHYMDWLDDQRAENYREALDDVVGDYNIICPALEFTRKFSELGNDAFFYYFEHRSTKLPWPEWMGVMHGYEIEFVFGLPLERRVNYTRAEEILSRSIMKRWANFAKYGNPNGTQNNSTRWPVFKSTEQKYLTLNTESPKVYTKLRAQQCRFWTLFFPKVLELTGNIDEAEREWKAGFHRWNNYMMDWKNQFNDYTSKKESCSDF

[11] = biological target: Acetylcholinesterase (Homo sapiens, UniProt P22303); assay: Inhibition of human AChE using acetylthiocholine iodide as substrate preincubated for 6 mins followed by substrate addition measured up to 180 secs by Ellman's method
Chain of Acetylcholinesterase (Homo sapiens, UniProt P22303) (P22303 whole entry): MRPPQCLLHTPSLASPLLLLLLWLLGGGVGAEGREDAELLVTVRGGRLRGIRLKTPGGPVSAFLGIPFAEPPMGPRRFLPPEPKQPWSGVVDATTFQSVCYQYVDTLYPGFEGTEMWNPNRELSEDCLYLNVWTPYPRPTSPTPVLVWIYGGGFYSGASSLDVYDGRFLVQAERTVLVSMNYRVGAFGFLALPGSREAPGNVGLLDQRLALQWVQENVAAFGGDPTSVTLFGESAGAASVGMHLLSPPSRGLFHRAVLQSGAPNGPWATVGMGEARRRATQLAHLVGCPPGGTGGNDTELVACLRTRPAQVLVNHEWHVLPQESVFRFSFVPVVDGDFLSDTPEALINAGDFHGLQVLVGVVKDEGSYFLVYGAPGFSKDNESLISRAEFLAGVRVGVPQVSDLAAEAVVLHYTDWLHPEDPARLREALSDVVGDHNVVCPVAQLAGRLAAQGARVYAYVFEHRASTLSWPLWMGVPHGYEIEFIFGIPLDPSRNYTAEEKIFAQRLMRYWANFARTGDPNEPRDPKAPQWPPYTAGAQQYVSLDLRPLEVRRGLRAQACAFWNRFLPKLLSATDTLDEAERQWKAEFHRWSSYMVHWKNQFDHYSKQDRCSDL

[12] = biological target: T2, Amine oxidase [flavin-containing] B; assay: Inhibition of recombinant human MAOB at 10 uM using p-tyramine as substrate after 15 mins by resorufin dye-based fluorometric method relative to control; settings: 0.25 h
[13] = biological target: Acetylcholinesterase (Electrophorus electricus) (UniProt O42275); assay: Mixed type inhibition of electric eel AChE up to 80 nM using acetylthiocholine iodide as substrate preincubated for 6 mins followed by substrate addition measured up to 180 secs by Lineweaver-burk plot method
Chain of Acetylcholinesterase (Electrophorus electricus) (O42275 24-633 limits assumed): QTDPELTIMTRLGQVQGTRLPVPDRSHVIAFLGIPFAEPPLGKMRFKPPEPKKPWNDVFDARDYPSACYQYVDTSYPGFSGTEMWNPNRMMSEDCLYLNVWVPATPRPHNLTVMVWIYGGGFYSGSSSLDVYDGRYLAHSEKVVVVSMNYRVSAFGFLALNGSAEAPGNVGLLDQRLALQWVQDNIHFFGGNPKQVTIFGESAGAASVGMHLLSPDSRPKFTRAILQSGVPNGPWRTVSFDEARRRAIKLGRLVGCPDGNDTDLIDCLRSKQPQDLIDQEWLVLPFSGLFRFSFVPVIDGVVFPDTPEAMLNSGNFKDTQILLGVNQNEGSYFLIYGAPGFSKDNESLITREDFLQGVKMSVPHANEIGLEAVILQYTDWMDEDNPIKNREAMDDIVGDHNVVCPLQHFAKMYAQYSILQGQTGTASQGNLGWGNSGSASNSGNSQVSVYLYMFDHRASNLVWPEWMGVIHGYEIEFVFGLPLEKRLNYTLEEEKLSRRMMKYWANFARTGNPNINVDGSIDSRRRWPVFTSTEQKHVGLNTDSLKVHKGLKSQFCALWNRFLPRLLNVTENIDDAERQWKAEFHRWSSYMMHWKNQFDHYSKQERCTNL

[14] = biological target: T2, Amine oxidase [flavin-containing] B; assay: Reversible inhibition of recombinant human MAO-B assessed as enzyme activity recovery at 10 times IC50 using p-tyramine as substrate preincubated for 30 mins followed by 100 fold compound dilution by Amplex Red dye-based fluorometric method relative to control; parameters: scale not given: the % may be the effect or the level left
[15] = biological target: T2, Amine oxidase [flavin-containing] B; assay: Reversible inhibition of recombinant human MAO-B assessed as enzyme activity recovery at 100 times IC50 using p-tyramine as substrate preincubated for 30 mins followed by 100 fold compound dilution by Amplex Red dye-based fluorometric method relative to control; parameters: scale not given: the % may be the effect or the level left
[16] = biological target: T2, Amine oxidase [flavin-containing] B; assay: Competitive inhibition of recombinant human MAOB up to 3 uM using p-tyramine as substrate after 15 mins by Lineweaver-burk plot method; settings: 0.25 h
[17] = biological target: T1, Amine oxidase [flavin-containing] A; assay: Inhibition of recombinant human MAOA using p-tyramine as substrate after 15 mins by Amplex Red dye-based fluorometric method
[18] = biological target: Acetylcholinesterase (Electrophorus electricus) (UniProt O42275); assay: Potency index, ratio of IC50 for donepezil to IC50 for test compound for inhibition of electric eel AChE using acetylthiocholine iodide as substrate preincubated for 6 mins followed by substrate addition measured up to 180 secs by Ellman's method

| Compound | inhibition [1] | inhibition at 10 µM [2] | Ratio IC50 [3] | Ratio IC50 [4] | IC50 [5] | Ratio IC50 [6] | IC50 [7] | Activity [8] | IC50 [9] | IC50 [10] | IC50 [11] | inhibition at 10 µM [12] | inhibition [13] | Activity [14] | Activity [15] | inhibition (INH) [16] | IC50 [17] | Ratio IC50 [18] |
| --- | --- | --- | --- | --- | --- | --- | --- | --- | --- | --- | --- | --- | --- | --- | --- | --- | --- | --- |
| Cc1cc(=O)oc2cc(OCc3cc[n+](Cc4ccccc4Br)cc3)ccc12.[Br-] | 63.7% | 15.1% | > 2.5 | 13.2 | 36.7 nM | 106 | 3990 nM | 97.6% | 8320 nM | 480 nM | 78.1 nM |  |  |  |  |  |  |  |
| Cc1cc(=O)oc2cc(OCc3cc[n+](Cc4ccc(Br)cc4)cc3)ccc12.[Br-] | 67.6% | 29.9% | > 2.58 | 41.1 | 119 nM | > 41.1 | 3880 nM | 98.5% |  | 4890 nM | 218 nM |  |  |  |  |  |  |  |
| Cc1cc(=O)oc2cc(OCc3cc[n+](Cc4cccc(Br)c4)cc3)ccc12.[Br-] | 62.7% | 44.6% | > 4.56 | 69.8 | 63.2 nM | > 77.8 | 2190 nM | 96.8% |  | 4410 nM | 129 nM |  |  |  |  |  |  |  |
| Cc1cc(=O)oc2cc(OCc3cc[n+](Cc4ccccc4)cc3)ccc12.[Br-] | 39.3% | 5.04% | 6.92 | 11.2 | 380 nM | > 28.4 |  | 97.5% |  | 4240 nM | 352 nM | 34.9% |  |  |  |  |  |  |
| Cc1cccc(C[n+]2ccc(COc3ccc4c(C)cc(=O)oc4c3)cc2)c1.[Br-] | 62.1% | 14.8% | > 6.37 | 62.2 | 37.3 nM | > 120 | 1570 nM | 101.5% |  | 2320 nM | 83.6 nM |  | Active | 86% | 47% | Active |  |  |
| Cc1cc(=O)oc2cc(OCc3cc[n+](Cc4ccc(F)cc4)cc3)ccc12.[Br-] | 49.1% |  | 0.46 | 101 | 29.1 nM | > 271 | 10000 nM | 94.8% |  | 2950 nM | 36.9 nM |  |  |  |  |  | 4600 nM |  |
| Cc1ccccc1C[n+]1ccc(COc2ccc3c(C)cc(=O)oc3c2)cc1.[Br-] | 55.2% | 13.9% | > 3.16 | 64.7 | 24.9 nM | > 282 | 3160 nM | 97.1% |  | 1610 nM | 35.4 nM |  |  |  |  |  |  | 1.9 |
| Cc1cc(=O)oc2cc(O)ccc12 [HYMECROMONE] |  |  |  |  | > 100000 nM |  |  |  |  | > 100000 nM |  |  |  |  |  |  |  |  |
| Cc1cc(=O)oc2cc(OCc3cc[n+](Cc4cccc(F)c4)cc3)ccc12.[Br-] | 50.8% | 34.3% | > 3.48 | 106 | 25.9 nM | > 240 | 2870 nM | 99.6% |  | 2740 nM | 41.6 nM |  |  |  |  |  |  | 1.9 |
| Cc1cc(=O)oc2cc(OCc3cc[n+](Cc4cccc([N+](=O)[O-])c4)cc3)ccc12.[Br-] | 42.8% |  |  |  | 38.3 nM |  |  | 98.4% |  | 4370 nM | 230 nM |  |  |  |  |  |  |  |
| Cc1ccc(C[n+]2ccc(COc3ccc4c(C)cc(=O)oc4c3)cc2)cc1.[Br-] | 58.5% | 9.05% | > 2.56 | 56.3 | 136 nM | > 40 | 3900 nM | 99.4% |  | 7660 nM | 250 nM |  |  |  |  |  |  |  |
| Cc1cc(=O)oc2cc(OCc3cc[n+](Cc4ccc([N+](=O)[O-])cc4)cc3)ccc12.[Br-] | 37.7% | 18.6% | > 1.45 | > 8.4 | 1190 nM | > 9.3 | 6890 nM | 99.5% |  |  | 1080 nM |  |  |  |  |  |  |  |
| Cc1cc(=O)oc2cc(OCc3cc[n+](Cc4ccccc4F)cc3)ccc12.[Br-] | 53.7% | 11.5% | > 2.37 | 55.6 | 29.5 nM | > 153 | 4210 nM | 100.8% |  | 1640 nM | 65.3 nM |  |  |  |  |  |  |  |
